# How the values were obtained:
# [1] = test system: rats; assay: Carrageenan-induced mechanical hyperalgesia (pain pressure threshold, Randall-Selitto); format: in vivo, Wistar rats; details: for Pain Threshold: 20 mg/kg i.p., mean ± SEM, rats; for Increase in pain threshold: 20 mg/kg, vs control
# Method: The acute and local inflammation and paw edema was induced by intraplantar (i.pl.) injection of 0.1 mL of 1% carrageenan solution in PBS into the rat’s right hind paw, according to the modified method of Winter and Lence, as described previously; (n = 84). The paw volume was measured using the dislocation of the water column of the plethysmometer (Type a, 7140; Plethysmometer, Ugo Basile, Gemonio, Italy) before (V0) and at 1, 2, and 3 h (V1, V2, V3) after i.pl. carrageenan injection. […] Vehicle (1% Tween 80) was administered by the same route as the tested compounds.
# Furthermore, we performed the pain pressure threshold test to assess heightened sensitivity to mechanical stimuli. The experiment was conducted based on the method described by Randall and Selitto [58], with certain modifications. An analgesymeter (AnalgesyMeter 37215, Ugo Basile, Gemonio, Italy) was used to gradually apply increasing pressure (measured in grams) to the plantar surface of the right hind paw of the rat until paw withdrawal occurred. At this point, the intensity of the applied force (in grams) was recorded as the withdrawal threshold. The maximum force intensity was set at 250 g. Carrageenan induces a decrease in the nociceptive threshold in response to a mechanical stimulus, a condition referred to as hyperalgesia. For each rat, paw withdrawal thresholds were recorded both before (0 h) and 1, 2, and 3 h after carrageenan administration (i.e., 3.5 h after intraperitoneal pretreatment with the tested compounds). […] The analgesic effect of the tested compounds was assessed in comparison with the control group (1% Tween 80); the injection was performed intraperitoneally within 30 min of carrageenan administration. An analgesic effect occurs when the compound administered produces a pain response with greater pressure than the control group.
# [2] = test system: mice; assay: Formalin test; format: in vivo, Albino Swiss mice; details: for Reduction of pain response, inflammatory phase: phase II (15–30 min)
# Method: The pain reaction was induced by intraplantar (i.pl.) injection of 20 μL of 2.5% formalin solution into the right hind paw of the mouse (n = 136). […] Time (in seconds) spent on licking or biting the injected hind paw in selected intervals, 0–5 min (neurogenic phase) and 15–30 min (inflammatory phase), was measured in each group and was an indicator of nociceptive behavior. The procedure was based on the method described by with some modifications by.
smiles,measurement,setting,value
"CC(C(=O)O)c1cccc(C(=O)c2ccccc2)c1 (stereo not drawn) [Ketoprofen, ketoprofen, reference compound]",Pain Threshold,[1]; 0 h (before carrageenan),130 ± 2.9 g
same,Pain Threshold,[1]; 1 h after carrageenan,155.8 ± 5.2 g
same,Pain Threshold,[1]; 2 h after carrageenan,187.5 ± 9.0 g
same,Pain Threshold,[1]; 3 h after carrageenan,178.3 ± 11.7 g
same,Increase in pain threshold,[1]; 1 h,19.8%
same,Increase in pain threshold,[1]; 2 h,38%
same,Increase in pain threshold,[1]; 3 h,33.8%
same,"Reduction of pain reaction (licking duration), neurogenic phase","[2]; phase I (0–5 min), 20 mg/kg i.p., vs vehicle",59.7%
same,"Reduction of neurogenic pain, neurogenic phase","[2]; phase I, ketoprofen doses other than 20 mg/kg",did not show a statistically significant reduction
same,"Reduction of pain response, inflammatory phase","[2]; 10 mg/kg i.p., vs vehicle",23.2%
same,"Reduction of pain response, inflammatory phase","[2]; 20 mg/kg i.p., vs vehicle",59.9%
same,"Reduction of pain response, inflammatory phase","[2]; 50 mg/kg, vs vehicle",71.8%

# From paper PMC12249711, “Comprehensive Evaluation of 1H-Isoindole-1,3(2H)-Dione Derivatives: Pharmacokinetic Studies and Analgesic Potential in Various Pain Models” (International Journal of Molecular Sciences, 2025)
